For data set [1] the following is noted: gadolinium complexes; cited from earlier work.
For data set [2] the following is noted: literature; cited from earlier work.
The nature of data set [3]: Absorption and luminescence (excitation, molar absorption, lifetime, quantal throughput). The class given is physicochemical. The following applies: for molar absorption coefficient: band at ˜36500 cm^−1; for ΦD2O (quantal throughput): in D2O; for ΦH2O (quantal throughput): in H2O; for τD2O (luminescence lifetime): in deuterized water; for τH2O (luminescence lifetime): in water; for emission quantal throughput F: relative to [Tb(dpa)3]^3−, buffer solution Tris 0.1M, 15% experimental error. The source says:
The absorption spectra of bpatcn^3− and its complexes of Eu^III and Tb^III show an intense band at ˜36500 cm^−1 with a molar absorption coefficient of 9050 for Eu and of 9100 for Tb. These bands have been attributed to a combination of π-->π* and n-->π* centred transitions of the ligand.
FIGS. 3a and 3b show respectively the emission spectra of the solutions of the europium and terbium complexes at pH=7.4 (obtained after excitation at 273 nm) and the usual and typical transitions ^5D0-->^7FJ and ^5D4-->^7FJ (J=0-6) of the ions Eu^3+ and Tb^3+.
The emission quantal throughput of the complex of [Tb(bpatcn)(H2O)]
The long life time of the luminescence observed for the terbium complex in water (1.5 ms), excludes the presence of a de-energizing process including the energy return of the metal in its energized state towards the ligand.
Chem. Int. Ed. Engl., 1987, 26, 1266; G. Mathis, Clin. Chem., 1993, 39, 195

Data set [4] is described as follows: Stability constant of the Gd complex by direct titration of 1:1 metal:ligand; pGd. The class given is physicochemical. The following applies: for Log βGdL (log KGdL): present work, 1:1 metal:H3bpatcn 5.10^−4 M, pH 2.5 to 8.5. The source says:
(§1) The stability constants of the complexes of H3bpatcn of Gd^III and of […] have been calculated by direct titration of a mixture of 1:1 metal:H3bpatcn (5.10^−4 M) in a pH range between 2.5 and 8.5.
(§2) The titration data may be represented by the following equations:
Gd^3++bpatcn^3−⇄[Gd(bpatcn)] log KGdL=15.8(2);

Data set [5] can be described thus: Stability constant of the Ca complex by direct titration of 1:1 metal:ligand; pCa. As to conditions: for logβCaL (log KCaL): present work, 1:1 metal:H3bpatcn 5.10^−4 M, pH 2.5 to 8.5. In kind it is physicochemical.
Description: as §1, §2
Ca^2++bpatcn^3−⇄[Ca(bpatcn)]^− log KCaL=8.18(7)

The nature of data set [6]: De-protonation constants (pKa) by potentiometric titration. As to conditions: 0.1 M KCl, 298 K. In kind it is physicochemical. From the text: Both following equivalents protonate the carboxylate moieties associated with the pyridines (pKa2=2.3(2), pKa3=3.71(3).
The protonation curve and the structural data match a simultaneous partial protonation of the three nitrogens of the macrocycle as observed for the ligand H3nota, followed by the protonation of the carboxylate moieties. The protonation of the third amine and of the nitrogens of the pyridines takes place at lower pH and the related pKa has not been determined.

For data set [7] the following is noted: cited from earlier work; for logβCaL: literature.
For data set [8] the following is noted: cited from earlier work; for Log βGdL (log KGdL): literature.
The mark [9] stands for this setting: pH 7.4, [M]total=1 μM, [bpatcn]total=10 μM.
Where [10] appears, read: commercial contrast agent, comparison.

Where “and” joins values, the source holds several entries; their conditions need not be identical. Identical values can stand only once. Like-named read-outs stand apart in the source and are kept apart here.

For the compound `O=C(O)CN1CCN(CC(=O)O)CCN(CC(=O)O)CCN(CC(=O)O)CC1` (Gd complex, metal not drawn) [dota, 1,4,7,10-tetraazacyclododecane-N,N′,N″,N′″-tetra-acetic (H4dota) acid], the “zero-field spin electronic relaxation” value in data set [1] was 650 ps.

Consider `C1CNCCNCCN1` [1,4,7-triazacyclononane], for which, in data set [2], the “pKa (highest, first listed)” value was 10.42 and the “pKa (second listed)” value is recorded as 6.82.

Turning to `O=C([O-])CN1CCN(Cc2cccc(C(=O)[O-])n2)CCN(Cc2cccc(C(=O)[O-])n2)CC1.[Eu+3]` [Eu (bpatcn)], in data set [3], the ε worked out at 9050 M⁻¹ cm⁻¹, the λexc worked out at 273 nm, the molar absorption coefficient amounted to 9050 M⁻¹ cm⁻¹ and the “ΦD2O (quantal throughput)” value is 0.12. Moreover, in data set [3], the “ΦH2O (quantal throughput)” value is recorded as 0.05, the “τD2O (luminescence lifetime)” value is 1.67 (4) ms, the “τH2O (luminescence lifetime)” value is given as 0.542 (4) ms and the “emission quantal throughput F” value was 5%.

In the case of `O=C(O)CN1CCN(Cc2cccc(C(=O)O)n2)CCN(Cc2cccc(C(=O)O)n2)CC1` [H3bpatcn], in data set [4] (due to two pyridyl nitrogen donors), the “increase in stability of the gadolinium complex (relative to nota complex)” value was 2.1 log units. For the same compound, the “pGd (−log [M]free)” value in data set [4] (setting [9]) amounted to 13.6. In addition, in data set [4], the “Log βGdL (log KGdL)” value was 15.8(2). In addition, in data set [3], the ε turned out to be 7850 M⁻¹ cm⁻¹ and the λexc was determined as 272 nm. For the same compound, in data set [5] (setting [9]), the “pCa (−log [M]free)” value amounted to 6.30. Further, the “logβCaL (log KCaL)” value in data set [5] is 8.18(7). Besides, in data set [6] (macrocycle nitrogen), the pKa4 is given as 5.42(3) and the pKa5 was 10.5(2). Besides, in data set [6] (picolinate carboxylate), the pKa2 is 2.3(2); the pKa3 was 3.7(3) and 3.71(3). Besides, in data set [6] (protonation of the carboxylate moiety), the pKa1 is on record as 2.2(2).

`O=C(O)CN1CCN(CC(=O)O)CCN(CC(=O)O)CC1` [H3nota, 1,4,7-triazacyclononane-N,N′,NN″-triacetic (H3nota) acid]: the logβCaL in data set [7] is on record as 8.92. Moreover, in data set [8], the “Log βGdL (log KGdL)” value is given as 13.7. For the same compound, in data set [2], the “pKa (highest, first listed)” value was 11.3(1); the “pKa (second listed)” value was 5.6; the “pKa (third listed)” value is 2.88(2).

`O=C(O)CN(CC(=O)O)CC(=O)O` [H3nta, nitrilotriethanoic acid]: the “Log βGdL (log KGdL)” value in data set [8] is recorded as 11.4. In addition, in data set [2], the “pKa (highest, first listed)” value is 9.75; the “pKa (second listed)” value is listed as 2.64; the “pKa (third listed)” value was 1.57.

For the compound `O=C(O)c1cccc(CN(Cc2cccc(C(=O)O)n2)Cc2cccc(C(=O)O)n2)n1` [H3tpaa, α, α′, α″ nitrilotri(6-methyl-2-pyridinecarboxylic) acid], the logβCaL in data set [7] was 8.5(2). Moreover, in data set [8], the “Log βGdL (log KGdL)” value is 10.2(2). Moreover, in data set [2], the “pKa (highest, first listed)” value was 4.11(6); the “pKa (second listed)” value was 3.3(1); the “pKa (third listed)” value is 2.5(2).

For `O=C(O)CN(CCN(CC(=O)O)Cc1cccc(C(=O)O)n1)Cc1cccc(C(=O)O)n1` [H4bpdea, N,N′-bis[(6-carboxypyridin-2-yl)methyl]-ethylene diamine-N,N′-diacetic (H4bpeda) acid], the logβCaL in data set [7] is recorded as 9.4(1). Besides, the “Log βGdL (log KGdL)” value in data set [8] is reported as 15.1(3). In addition, in data set [2], the “pKa (fourth listed)” value was 2.9(1); the “pKa (highest, first listed)” value is on record as 8.5(1); the “pKa (second listed)” value is 5.2(2); the “pKa (third listed)” value was 3.5(1).

`O=C(O)CN(CCN(CC(=O)O)CC(=O)O)CC(=O)O` [H4edta]: the logβCaL in data set [7] is 10.5. Moreover, the “Log βGdL (log KGdL)” value in data set [8] is 17.4. In data set [2], the “pKa (fourth listed)” value is 2.60; the “pKa (highest, first listed)” value is given as 10.19; the “pKa (second listed)” value is recorded as 6.13; the “pKa (third listed)” value is on record as 2.69.

On to `O=C(O)CN(CCN(CC(=O)O)Cc1ccccn1)Cc1ccccn1` [N,N′-bis(2-pyridinylmethyl)ethylenediamine-N,N′-diacetate], for which the “contribution of the 2-pyridylmethyl to stability of the Gd^III complex” value in data set [8] (estimated) is reported as 2.6 log units.

Turning to `O=C([O-])CN1CCN(Cc2cccc(C(=O)[O-])n2)CCN(Cc2cccc(C(=O)[O-])n2)CC1.[Tb+3]` [Tb (bpatcn)], in data set [3], the ε was 9100 M⁻¹ cm⁻¹, the λexc was determined as 273 nm, the molar absorption coefficient came to 9100 M⁻¹ cm⁻¹ and the “ΦD2O (quantal throughput)” value is 0.48. Further, in data set [3], the “ΦH2O (quantal throughput)” value is 0.43; the “τD2O (luminescence lifetime)” value is on record as 2.46 (7) ms; the “τH2O (luminescence lifetime)” value was 1.5 ms and 1.49 (2) ms; the “emission quantal throughput F” value was 43%. Also, the “quantal throughput value Φ” value in data set [3] (as stated in text before the table) is 48%.

With `O=C(O)CN1CCN(Cc2cccc(C(=O)[O-])n2)CCN(Cc2cccc(C(=O)[O-])n2)CC1.[Ca+2]` [[Ca(bpatcn)]^−], in data set [5], the “logβCaL (log KCaL)” value is reported as 8.18(7).

For `O=C([O-])CN1CCN(Cc2cccc(C(=O)[O-])n2)CCN(Cc2cccc(C(=O)[O-])n2)CC1.[Gd+3]` [[Gd(bpatcn)]], the “Log βGdL (log KGdL)” value in data set [4] is 15.8(2).

As to `CNC(=O)CN(CCN(CCN(CC(=O)[O-])CC(=O)NC)CC(=O)[O-])CC(=O)[O-].[Gd+3]` [[Gd(dtpa-bma)(H2O)]^−], the pCa in data set [7] (setting [10]) is recorded as 6.39. Moreover, in data set [8] (setting [10]), the pGd is 15.8. Besides, in data set [8], the “Log βGdL (log KGdL)” value is recorded as 1.85.

As to `O=C([O-])c1cccc(CN2CCN(Cc3cccc(C(=O)[O-])n3)CCN(Cc3cccc(C(=O)[O-])n3)CC2)n1.[Gd+3]` [[Gd(tpatcn)]], the “zero-field spin electronic relaxation” value in data set [1] is on record as “approx. 1500 ps”.

Source of the values: patent US20100247448A1, “NOVEL LANTHANIDE LIGANDS AND COMPLEXES, AND USE THEREOF AS CONTRAST AGENTS” (COMMISSARIAT A L'ENERGIE ATOMIQUE, priority 2006, published 2010).
